Assay results published in ChEMBL document CHEMBL5260828, “Amphiphilic glycoconjugates as potential anti-cancer chemotherapeutics” (Eur J Med Chem, 2018).
≈ marks a conversion by molar mass, not a printed value.

Assays:
[1] = molecular target: Sarcoplasmic/endoplasmic reticulum calcium ATPase 1 (Oryctolagus cuniculus, UniProt P04191); test: Inhibition of SERCA1a in rabbit Sarcoplasmic reticulum assessed as inhibition constant in presence of [gamma-32P]ATP and calcium ionophore A23187 by coupled enzyme assay; format: subcellular
HeLa S3 [2] = test: Cytotoxicity against human HeLa S3 cells assessed as inhibition of cell proliferation incubated for 72 hrs by MTT assay; format: functional, cell-based; details: HeLa S3, 72 h
HEp-2 = test: Cytotoxicity against human HEp-2 cells assessed as cell growth inhibition by measuring effective dose; format: functional; details: read-out: ED50 (the source's name)
KB [3] = test: Cytotoxicity against human KB cells by MTT assay; format: functional, cell-based
K562 [4] = test: Cytotoxicity against human K562 cells by MTT assay; format: functional, cell-based
A549 [5] = test: Cytotoxicity against human A549 cells assessed as inhibition of cell growth by measuring its effective dose; format: functional; details: read-out: ED50 (the source's name)
SK-OV-3 = test: Cytotoxicity against human SK-OV-3 cells assessed as inhibition of cell growth by measuring its effective dose; format: functional; details: read-out: ED50 (the source's name)
SK-MEL-2 = test: Cytotoxicity against human SK-MEL-2 cells assessed as inhibition of cell growth by measuring its effective dose; format: functional; details: read-out: ED50 (the source's name)
XF498 = test: Cytotoxicity against human XF498 cells assessed as inhibition of cell growth by measuring its effective dose; format: functional; details: read-out: ED50 (the source's name)
HCT-15 = test: Cytotoxicity against human HCT-15 cells assessed as inhibition of cell growth by measuring its effective dose; format: functional; details: read-out: ED50 (the source's name)
KB [6] = test: Cytotoxicity against human KB cells assessed as cell growth inhibition incubated for 24 hrs by MTT assay; format: functional, cell-based
A549 [7] = test: Cytotoxicity against human A549 cells assessed as cell growth inhibition incubated for 24 hrs by MTT assay; format: functional, cell-based; details: A549, 24 h
Col2 = test: Cytotoxicity against human Col2 cells assessed as cell growth inhibition incubated for 24 hrs by MTT assay; format: functional, cell-based; details: Col2, 24 h
K562 [8] = test: Cytotoxicity against human K562 cells assessed as cell growth inhibition incubated for 24 hrs by MTT assay; format: functional, cell-based; details: K562, 24 h
MDA-MB-231 = test: Cytotoxicity against human MDA-MB-231 cells assessed as cell growth inhibition incubated for 24 hrs by MTT assay; format: functional, cell-based; details: MDA-MB-231, 24 h
[9] = Cytotoxicity against human HEK293F cells; format: toxicity, cell-based
MKN-45 = test: Cytotoxicity against human MKN-45 cells; format: functional, cell-based
ACHN = test: Cytotoxicity against human ACHN cells; format: functional, cell-based
[10] = molecular target: RAC-alpha serine/threonine-protein kinase (Homo sapiens, UniProt P31749); test: Inhibition of AKT1 (unknown origin) in presence of ATP by ELISA
IGROV-1 [11] = test: Antiproliferative activity against human IGROV-1 cells assessed as inhibition of cell growth incubated for 72 hrs by Coulter counter assay; format: functional, cell-based; details: IGROV-1, 72 h
IGROV-1 [12] = test: Antiproliferative activity against human IGROV-1 cells assessed as inhibition of cell growth incubated for 72 hrs in serum-free medium by Coulter counter assay; format: functional, cell-based; details: IGROV-1, 72 h
K562 [13] = test: Antiproliferative activity against human K562 cells assessed as reduction in cell viability incubated for 48 hrs by CCK-8 assay; format: functional, cell-based; details: K562, 48 h
HeLa S3 [14] = test: Cytotoxicity against human HeLa S3 cells assessed as cell growth inhibition incubated for 48 hrs by MTT assay; format: functional, cell-based; details: HeLa S3, 48 h
MCF7 = test: Growth inhibition of human MCF7 cells incubated for 72 hrs by sulforhodamine B staining assay; format: functional
[15] = Growth inhibition of mouse Lewis lung carcinoma cell line incubated for 72 hrs by sulforhodamine B staining assay; format: functional
L1210 = test: Growth inhibition of mouse L1210 cells incubated for 72 hrs by sulforhodamine B staining assay; format: functional
NCI/ADR-RES = test: Growth inhibition of human multi-drug resistant MCF7/Adr cells incubated for 72 hrs by sulforhodamine B staining assay; format: functional
NCI-H292 = test: Cytotoxicity against human NCI-H292 cells assessed as reduction in cell viability incubated for 4 days by WST-1 assay; format: functional, cell-based; details: NCI-H292, 96 h

Sarcoplasmic/endoplasmic reticulum calcium ATPase 1, sequence (P04191 whole entry): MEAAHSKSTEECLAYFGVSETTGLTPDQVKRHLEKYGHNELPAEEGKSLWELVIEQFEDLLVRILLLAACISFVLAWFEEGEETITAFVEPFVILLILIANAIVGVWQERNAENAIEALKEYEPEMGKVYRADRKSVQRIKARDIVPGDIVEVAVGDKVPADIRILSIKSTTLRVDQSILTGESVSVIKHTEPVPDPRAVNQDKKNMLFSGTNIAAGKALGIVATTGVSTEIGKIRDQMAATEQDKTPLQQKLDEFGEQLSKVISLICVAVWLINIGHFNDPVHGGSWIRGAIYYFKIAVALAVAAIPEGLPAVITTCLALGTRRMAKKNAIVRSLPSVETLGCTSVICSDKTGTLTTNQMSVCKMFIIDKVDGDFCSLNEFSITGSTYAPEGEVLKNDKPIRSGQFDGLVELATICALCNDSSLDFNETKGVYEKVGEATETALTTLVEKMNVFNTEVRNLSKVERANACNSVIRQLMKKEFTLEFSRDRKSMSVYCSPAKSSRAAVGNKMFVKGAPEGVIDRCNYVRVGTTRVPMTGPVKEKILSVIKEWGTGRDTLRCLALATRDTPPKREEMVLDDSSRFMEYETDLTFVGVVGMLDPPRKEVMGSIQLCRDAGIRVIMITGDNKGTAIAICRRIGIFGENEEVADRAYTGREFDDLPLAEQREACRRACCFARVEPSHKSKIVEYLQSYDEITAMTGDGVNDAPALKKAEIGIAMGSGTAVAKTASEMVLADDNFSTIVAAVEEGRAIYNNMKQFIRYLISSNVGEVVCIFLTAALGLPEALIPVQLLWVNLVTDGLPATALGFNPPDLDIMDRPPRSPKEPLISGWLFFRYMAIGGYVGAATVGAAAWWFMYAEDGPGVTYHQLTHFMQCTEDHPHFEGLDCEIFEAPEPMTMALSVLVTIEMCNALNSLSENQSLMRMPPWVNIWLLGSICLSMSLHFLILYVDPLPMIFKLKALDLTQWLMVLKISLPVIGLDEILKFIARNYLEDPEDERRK
RAC-alpha serine/threonine-protein kinase, sequence (P31749 whole entry): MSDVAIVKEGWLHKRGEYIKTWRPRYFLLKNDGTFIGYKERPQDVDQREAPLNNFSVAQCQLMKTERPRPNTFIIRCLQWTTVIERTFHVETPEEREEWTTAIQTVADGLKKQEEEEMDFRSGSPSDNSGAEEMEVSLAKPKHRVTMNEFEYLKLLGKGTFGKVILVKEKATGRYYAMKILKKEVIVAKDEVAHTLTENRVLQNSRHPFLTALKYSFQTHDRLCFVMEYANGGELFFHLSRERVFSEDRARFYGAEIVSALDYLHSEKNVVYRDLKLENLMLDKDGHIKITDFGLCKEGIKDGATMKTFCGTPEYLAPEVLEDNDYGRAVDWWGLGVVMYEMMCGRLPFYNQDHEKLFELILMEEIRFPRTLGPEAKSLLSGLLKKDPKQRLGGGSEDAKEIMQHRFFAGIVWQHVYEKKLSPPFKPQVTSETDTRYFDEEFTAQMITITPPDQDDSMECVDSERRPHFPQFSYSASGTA

## C/C=C/C/C(C)=C\[C@H]1C[C@H]2C=C[C@H](C[C@H](C)/C=C(\C)[C@@H](OC)C/C=C/[C@@H](O[C@@H]3O[C@H](CO)[C@@H](O)[C@H](OC)[C@H]3O)CC(=O)O1)OO2
[1]
  Ki: 0.018 µM
HeLa S3 [2]
  IC50: > 10 µM

## CCCCCCCCCCCC(=O)O[C@@H]1[C@@H](O)[C@@H](OC(=O)/C=C/c2ccccc2)[C@H](O[C@@H]2[C@@H](O)[C@@H](OC(=O)[C@@H](C)CC)[C@H](O[C@@H]3[C@@H](O)[C@H]4OC(=O)CCCCCCCCC[C@@H](CCCCC)O[C@@H]5O[C@H](CO)[C@@H](O)[C@H](O)[C@H]5O[C@@H]4O[C@H]3C)O[C@H]2C)O[C@H]1C
HEp-2
  EC50: 3.5 µg/mL (≈ 2.8 µM)

## C/C=C(\C)[C@H](O)[C@H](C)/C=C/C=C/C/C(C)=C/Cc1nc(OC)c(OC)c(OC2O[C@@H](C)[C@H](O)[C@@H](O)[C@H]2O)c1C (some centres undefined)
KB [3]
  IC50: 4.5 µg/mL (≈ 8.22 µM)
K562 [4]
  IC50: 2.9 µg/mL (≈ 5.29 µM)

## CCCCCCCCCCCCCCCCOC[C@H](O)COC1[C@@H](O)[C@H](O)[C@@H](O)[C@@H]1O
A549 [5]
  EC50: 4.3 µg/mL (≈ 9.58 µM)
SK-OV-3
  EC50: 4.3 µg/mL (≈ 9.58 µM)
SK-MEL-2
  EC50: 4.3 µg/mL (≈ 9.58 µM)
XF498
  EC50: 4.3 µg/mL (≈ 9.58 µM)
HCT-15
  EC50: 4.3 µg/mL (≈ 9.58 µM)

## CCCCCCCCO[C@@H]1O[C@@H](C)[C@H](OC(=O)CCCCC)[C@@H](O[C@@H]2O[C@@H](C)[C@H](OC(C)=O)[C@@H](O[C@@H]3O[C@@H](C)[C@H](OC(C)=O)[C@@H](O[C@@H]4O[C@@H](C)[C@H](O)[C@@H](O)[C@H]4OC(C)=O)[C@H]3OC(C)=O)[C@H]2OC(C)=O)[C@H]1O
KB [6]
  IC50: 0.7 µM
A549 [7]
  IC50: 0.7 µM
Col2
  IC50: 0.7 µM
K562 [8]
  IC50: 0.7 µM
MDA-MB-231
  IC50: 0.7 µM

## CCCCCCCC(=O)O[C@H]1[C@H](OC[C@@H](O)[C@@H](O)[C@H](O)CO)O[C@H](COC(=O)CCCCC)[C@@H](OC(=O)CCCCC)[C@@H]1OC(=O)CCCCC
[9]
  IC50: 8.9 µM
MKN-45
  IC50: 7.5 µM
ACHN
  IC50: 6.8 µM

## CCCCCCCCCCCCCCCCCOC(=O)O[C@H](COC(=O)CCCCCCCCCCCCCCCCC)COP(=O)(O)O[C@@H]1[C@H](O)[C@H](OP(=O)(O)O)[C@@H](O)[C@H](O)[C@H]1O
[10]
  IC50: 19.7 µM
IGROV-1 [11]
  IC50: 49 µM
IGROV-1 [12]
  IC50: 3.35 µM

## CCCCCCCCCCN1C[C@@H](O)[C@@H](O)C1
K562 [13]
  IC50: 17.7 µM

## C/C=C\C/C=C\C/C=C\C/C=C\C/C=C\CCCC(=O)OCC(CO[C@H]1O[C@H](CS(=O)(=O)O)[C@@H](O)[C@H](O)[C@H]1O)OC(=O)CCCCCCCCCCCCCCC (some centres undefined)
HeLa S3 [14]
  IC50: 80 µM

## CCCCCCCCCCCC(=O)O[C@@H]1[C@@H](O)[C@@H](OC(=O)/C=C/c2ccccc2)[C@H](O[C@@H]2[C@@H](O[C@@H]3O[C@@H](C)[C@H](O)[C@@H](O)[C@H]3O)[C@@H](OC(=O)C(C)C)[C@H](O[C@@H]3[C@@H](O)[C@H]4OC(=O)CCCCCCCCC[C@@H](CCCCC)O[C@@H]5O[C@H](C)[C@@H](O)[C@H](O)[C@H]5O[C@@H]4O[C@H]3C)O[C@H]2C)O[C@H]1C
HEp-2
  EC50: 2 µg/mL (≈ 1.46 µM)

## CCCCCCCCCCCCCCCCOC[C@H](CO[C@H]1C[C@@H](O)[C@H](O)[C@@H](CO)O1)OC
MCF7
  GI50: 6.93 µM
[15]
  GI50: 11.1 µM
L1210
  GI50: 7.09 µM
NCI/ADR-RES
  GI50: 12.8 µM

## COC[C@@H](C[C@H]1O[C@@](O)([C@H](O)[C@@H]2C[C@H](OC)[C@@H](O)CC/C=C(C)/C=C/[C@@H](O[C@@H]3O[C@@H](C)[C@H](OC)[C@@H](O)[C@@H]3O)[C@H](C)/C=C(C)/C=C(C)/C=C(/C)C(=O)O2)[C@H](C)[C@@H](O)[C@H]1C)O[C@H]1C[C@](C)(O)[C@@H](O[C@H]2C[C@@H](OC)[C@H](O)[C@@H](C)O2)[C@H](C)O1
NCI-H292
  EC50: 0.15 µM
